These results are taken from patent publication US20070191490A1, “Withacnistin compounds for treatment of cancer” (priority 2006, published 2007).

Each structure is given as a SMILES string. Entries after “also recorded” stand apart in the source; their conditions may differ.

For orientation: IC50 means the concentration at which inhibition is half-maximal.

For experiment [1], the system named is phosphotyrosine-STAT3. Briefly: Inhibition of phosphotyrosine-STAT3 levels in tumor cell lines (Western blotting). As to conditions: for potency compared with the withacnistin mixture (P-STAT3 suppression): A549 and MDA-MB-468 cells; for P-STAT3 levels: A549 cells (FIG. 8A); for IC50: Wit tested as withacnistin mixture; for levels of P-STAT3: 10 μM, 4 hours. Type of experiment: cell-based, human. The procedure: Western blotting. Treated cell samples were lysed in 30 mM HEPES, pH 7.5, 10 mM NaCl, 5 mM MgCl2, 25 mM NaF, 1 mM EGTA, 1% Triton X-100, 10% glycerol, 2 mM sodium orthovanadate, 10 μg/ml aprotinin, 10μ/ml soybean trypsin inhibitor, 25 μg/ml leupeptin, 2 mM PMSF, and 6.4 mg/ml p-nitrophenylphosphate. Phospho-STAT3, phospho-AKT, phospho-Src, and phospho-p42/p44 MAPK antibodies were obtained from Cell Signaling Technologies (Cambridge, Mass., USA). Phospho-JNK and whole STAT3 antibodies were purchased from Santa Cruz Biotechnology (Santa Cruz, Calif., USA); phospho-JAK2 antibody came from Upstate Biotechnology (Lake Placid, N.Y., USA). Membranes were blocked in either 5% milk in phosphate-buffered saline (PBS), pH 7.4, containing 0.1% Tween-20 (PBS-T) or 1% BSA in tris-buffered saline (TBS), pH 7.5, containing 0.1% Tween-20 (TBS-T). Phospho-specific antibodies (excepting P-MAPK and P-JNK) were incubated in 1% BSA in TBS-T while all other antibodies were diluted in 5% milk in PBS-T for either 2 h at room temperature or overnight at 4° C. HRP-conjugated secondary antibodies (Jackson ImmunoResearch, West Grove, Pa., USA) were diluted in 5% milk in either PBS-T or TBS-T at 1:1000 dilution for 1 h at room temperature. Western blots were visualized using enhanced chemiluminescence.
To this end, A549 cells (a human non-small-cell lung carcinoma line) were treated with either vehicle, cucurbitacin analogs A, B, E, or I, or withacnistin mixture (10 ∥M) for 4 hours and the cell lysates processed for Western blotting with antiphosphotyrosine STAT3 (Y705) antibody or antiphosphotyrosine JAK2 (Y1007, Y1008) antibody as described under Materials and Methods.
As further support of the specific antiphosphotyrosine STAT3, but not antiphosphotyrosine JAK2, activity of withacnistin, A549 cells, as well as two breast carcinoma cell lines (MDA-MB-435 and MDA-MB-468) that also express constitutively activated JAK2 and STAT3, were treated with the withacnistin mixture at various concentrations, and determined IC50 values of inhibition of STAT3 and JAK2 activation.

Experiment [2] relates to phosphotyrosine STAT3. The experiment in a line: P-STAT3 immunohistochemistry of A549 tumor sections. The note with it: 1 mg/kg/day; for P-STAT3 positive cells: termination day, control 76.5±1.4%. Type of experiment: in vivo, nude mice. The method, then: P-STAT3 immunohistochemistry. On the termination day of the A549 antitumor experiment, tumors were extracted and fixed in 10% neutral-buffered formalin for 6 hours. After fixation, the tissue samples were processed into paraffin blocks. Tissue sections (5 μm) were dewaxed with xylene and rehydrated through descending alcohol to deionized water and then placed in PBS. Antigens were retrieved briefly with citrate buffer, pH 6.0, in a microwave followed by a mild trypsinization (0.025% trypsin in 50 mM Tris buffer containing 0.05% calcium chloride, pH 7.6). From this point, all steps were carried out in a DAKO Autostainer (DakoCytomation California, Inc., Carpinteria, Calif., USA). Sections were rinsed three times in TBS-Tween buffer, pH 7.6, then endogenous peroxidases were quenched with 3% hydrogen peroxide and nonspecific binding with 2% normal goat serum in 3% BSA/PBS. Sections then were incubated overnight with 1:400 phospho-STAT3 (Cell Signaling Technologies) at 4° C. in a humidified chamber. Detection was performed using the Elite ABC Rabbit kit (Vector Laboratories) and DAB chromogen (DakoCytomation California, Inc.) according to the manufacturer's instructions. Slides were counterstained for 20-30 seconds with modified Mayer's hematoxylin, dehydrated through ascending alcohol, cleared, and mounted with resinous mounting medium. Quantification was performed by counting both the phospho-STAT3-positive and -negative cells on slides representative of eight tumors and significance was determined by Student's t-test.
(§1) To determine whether phosphotyrosine STAT3 is targeted by withacnistin in vivo, and to determine if the results seen in cell culture concerning induction of apoptosis were occurring in tumors from animals treated with withacnistin, on the termination day of the A549 antitumor experiment, tumors from animals treated with Cuc A, Cuc I, and the withacnistin mixture, as well as vehicle control, were extracted and fixed in 10% neutral-buffered formalin and then processed into paraffin blocks for tissue sectioning. These tissue sections were stained separately with either TUNEL for determination of apoptosis, or phosphotyrosine STAT3 to determine if the signaling protein is inhibited in the tumors.

Experiment [3] relates to A549 tumors. The experiment in a line: TUNEL immunohistochemistry of A549 tumor sections. The format is in vivo, nude mice. The note with it: 1 mg/kg/day, control 0.4±0.1%. The method, then: TUNEL immunohistochemistry. Tumors were harvested, […], and dewaxed as described for P-STAT3 immunohistochemistry. Tissue sections (5 μm) were digested for 10 minutes with 25 μg/ml proteinase K in PBS and then washed thoroughly. Peroxidases were quenched with 3% hydrogen peroxide in PBS and washed. Sections were equilibrated with equilibration buffer, then incubated in 30% TdT enzymes/70% digoxigenin nucleotidyl reaction buffer for 1 hour at 37° C. in a humidified chamber. The labeling reaction was stopped in stop/wash buffer with moderate shaking. Slides then were placed on the Dako Autostainer and incubated with antidigoxigenin-peroxidase (DakoCytomation California, Inc.) for 30 minutes using DAB substrate. Sections were counterstained with methyl green (Vector Laboratories), dehydrated through ascending alcohol, cleared, and mounted with resinous mounting medium. The quantification was performed by counting both the TUNEL-positive and -negative cells on slides representative of eight tumors and significance was determined by Student's t-test.
as §1

For `CC(=O)OC[C@]12CC[C@H]3[C@@H](C[C@H]4O[C@]45[C@@H](O)C=CC(=O)[C@]35C)[C@@H]1CC[C@@H]2[C@H](C)[C@H]1CC(C)=C(C)C(=O)O1` [withacnistin], in experiment [1] (A549 and MDA-MB468 cells, 4-hour treatment (FIGS. 7A, 7B)), the P-STAT3 entry was “inhibit”. Further, the “potency compared with the withacnistin mixture (P-STAT3 suppression)” value in experiment [1] (listed as W) is recorded as “slightly more potent than WM”; in experiment [1] (listed as pure withacnistin), “more potent than the withacnistin mixture”. Besides, the P-STAT3 levels entry in experiment [1] was “suppressed”. Also, the IC50 in experiment [1] (A549 cells) was 3.7 ± 1.7 µM; in experiment [1] (MDA-MB-435 cells), 0.9 ± 0.6 µM; in experiment [1] (MDA-MB-468 cells) it was 1.4 ± 0.7 µM. In addition, in experiment [2], the “inhibition of phosphotyrosine-STAT3 compared to vehicle control” value (“inhibition … compared to vehicle control” below) is recorded as 70.5%. In experiment [2], this molecule came in with a P-STAT3 positive cells of 22.6±7.3%. The TUNEL-positive cells in experiment [3] turned out to be 14.3±2.7%.
As for `CC(C)(O)/C=C/C(=O)[C@](C)(O)[C@H]1[C@H](O)C[C@@]2(C)[C@@H]3CC=C4[C@@H](C=C(O)C(=O)C4(C)C)[C@]3(C)C(=O)C[C@]12C` [Cuc I, cucurbitacin I], the P-STAT3 levels entry in experiment [1] is on record as “suppressed the levels of both”. Also, in experiment [1] (A549 cells), the “levels of P-STAT3” value is listed as “inhibited” and the IC50 is 0.8 ± 0.7 µM. Also, the IC50 in experiment [1] (MDA-MB-435 cells) was found to be 4.6 ± 1.9 µM. Besides, in experiment [1] (MDA-MB-468 cells), the IC50 was 7.5 ± 1.5 µM. In addition, in experiment [2], the “inhibition … compared to vehicle control” value is listed as 28.5% and the P-STAT3 positive cells was found to be 54.7±4.5%. Also, in experiment [3], the TUNEL-positive cells amounted to 10.5±3.0%.
For `CC(=O)OC(C)(C)/C=C/C(=O)[C@](C)(O)[C@H]1[C@H](O)C[C@@]2(C)[C@@H]3CC=C4[C@@H](C[C@H](O)C(=O)C4(C)C)[C@]3(CO)C(=O)C[C@]12C` [Cuc A, cucurbitacin A], in experiment [1] (A549 cells), the “levels of P-STAT3” value is reported as “had no effect; also recorded: little inhibitory activity” and the IC50 is above 10 µM. For the same molecule, the IC50 in experiment [1] (MDA-MB-435 cells) is above 10 µM. In experiment [1] (MDA-MB-468 cells), the IC50 was above 10 µM. Also, in experiment [2], the “inhibition … compared to vehicle control” value is recorded as “no inhibition” and the P-STAT3 positive cells stood at 80.8±1.8%. For the same molecule, in experiment [3], the TUNEL-positive cells was determined as 0.3±0.2%.
